From patent US20090143279A1 (priority 2007, published 2009)
Read-outs that look alike come from different tables or passages of the source. Where a SMILES comes first, the peptide text is derived from it.

Columns and labels:
[1] = test system: cellular dehydrogenase activity; settings: for MTT (composite Z-score): normalized score vs mock-treated (DMSO) wells
C2C12 myotubes = settings: for Viability (composite Z-score): normalized score vs mock-treated (DMSO) wells
[2] = test system: mitochondrial membrane potential; assay type: cell-based, mouse; settings: for ΔΨm (composite Z-score): normalized score vs mock-treated (DMSO) wells
mtOXPHOS transcripts = assay type: cell-based, mouse; settings: for mitoOX (composite Z-score): normalized score vs mock-treated (DMSO) wells
reactive oxygen species = assay type: cell-based, mouse; settings: for ROS (composite Z-score): normalized score vs mock-treated (DMSO) wells
cytochrome c = assay type: cell-based, mouse; settings: for cyt c (composite Z-score): normalized score vs mock-treated (DMSO) wells
cytochrome c, sequence (P62897 whole entry): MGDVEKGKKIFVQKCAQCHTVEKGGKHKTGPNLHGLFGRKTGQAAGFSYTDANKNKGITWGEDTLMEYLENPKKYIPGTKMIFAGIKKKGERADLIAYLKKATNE

OXPHOS gene expression = assay type: cell-based, mouse; settings: for GE-HTS (composite Z-score): normalized score vs mock-treated (DMSO) wells
nuOXPHOS transcripts = assay type: cell-based, mouse; settings: for nucOX (composite Z-score): normalized score vs mock-treated (DMSO) wells
[3] = composite Z-score vs DMSO, Conc 20 μM
[4] = composite Z-score vs mock-treated (DMSO) wells, concentration of each compound in μM
[5] = composite Z-score vs mock-treated (DMSO) wells, Conc 20 μM
[6] = composite Z-score vs DMSO wells, Conc 20 μM
[7] = normalized composite Z-score vs mock-treated (DMSO) wells, Conc 20 μM

CCN1C[C@]2(COC)[C@H](O)C[C@H](OC)[C@@]34[C@@H]5C[C@@]6(O)[C@H](OC(=O)c7ccccc7)[C@@H]5[C@@](OC(C)=O)([C@@H]([C@H](OC)[C@H]23)[C@@H]14)[C@@H](O)[C@@H]6OC [aconitine]
MTT [1, 3]: −0.584
Viability (C2C12 myotubes; [3]): 0.132
ΔΨm [2, 3]: −0.073
mitoOX (mtOXPHOS transcripts; [3]): −0.198
ROS (reactive oxygen species; [3]): 1.038
cyt c (cytochrome c; [3]): 0.751
cyt c (cytochrome c; [4]): 1.609
GE-HTS (OXPHOS gene expression; [3]): 0.169
nucOX (nuOXPHOS transcripts; [3]): 0.356

CC(=O)O[C@@H]1CC(=O)[C@@]2(C)C(CC(=O)[C@]3(C)C2CC[C@@]2(C)[C@H](c4ccoc4)OC(=O)C4OC423)C1(C)C (some centres unmarked) [1,7-dideacetoxy-1,7-dioxokhivorin]
MTT [1, 5]: −0.142
Viability (C2C12 myotubes; [5]): 0.042
ΔΨm [2, 5]: −0.535
mitoOX (mtOXPHOS transcripts; [5]): −0.355
ROS (reactive oxygen species; [5]): 0.352
cyt c (cytochrome c; [5]): 0.539
GE-HTS (OXPHOS gene expression; [5]): −0.558
nucOX (nuOXPHOS transcripts; [5]): −0.585

Oc1cc(O)c2c(c1)O[C@H](c1ccc(O)c(O)c1)[C@@H](O)C2 [cianidanol, reference compound]
MTT [1, 6]: −1.471
Viability (C2C12 myotubes; [6]): 0.630
ΔΨm [2, 6]: −1.746
mitoOX (mtOXPHOS transcripts; [6]): 0.347
ROS (reactive oxygen species; [6]): −0.371
cyt c (cytochrome c; [6]): 0.639
GE-HTS (OXPHOS gene expression; [6]): −0.113
nucOX (nuOXPHOS transcripts; [6]): −0.357

O=C(O)CCC/C=C\CC1COC(C(F)(F)F)OC1c1ccccc1O (centres unmarked)
MTT [1, 4]: −0.548
Viability (C2C12 myotubes; [4]): −0.413
ΔΨm [2, 4]: −0.087
mitoOX (mtOXPHOS transcripts; [4]): 0.594
ROS (reactive oxygen species; [4]): 0.713
cyt c (cytochrome c; [4]): −0.437
GE-HTS (OXPHOS gene expression; [4]): 0.344
nucOX (nuOXPHOS transcripts; [4]): 0.169

CCC(N)C(O)c1ccc(O)c(O)c1 (centres unmarked) [ethylnorepinephrine]
MTT (composite Z-score) ([1]; Conc 20 μM): −1.017
Viability (composite Z-score) (C2C12 myotubes; Conc 20 μM): −0.508
ΔΨm (composite Z-score) ([2]; Conc 20 μM): −2.053
mitoOX (composite Z-score) (mtOXPHOS transcripts; Conc 20 μM): −0.921
ROS (composite Z-score) (reactive oxygen species; Conc 20 μM): −0.396
cyt c (composite Z-score) (cytochrome c; Conc 20 μM): −0.439
GE-HTS (composite Z-score) (OXPHOS gene expression; Conc 20 μM): −0.475
nucOX (composite Z-score) (nuOXPHOS transcripts; Conc 20 μM): −0.195

COc1cc(O)c2c(=O)cc(-c3ccc(O)cc3)oc2c1 [genkwanin]
MTT (composite Z-score) ([1]; Conc 20 μM): −2.090
Viability (composite Z-score) (C2C12 myotubes; Conc 20 μM): −0.323
ΔΨm (composite Z-score) ([2]; Conc 20 μM): −0.491
mitoOX (composite Z-score) (mtOXPHOS transcripts; Conc 20 μM): 0.389
ROS (composite Z-score) (reactive oxygen species; Conc 20 μM): 3.337
cyt c (composite Z-score) (cytochrome c; Conc 20 μM): −0.037
GE-HTS (composite Z-score) (OXPHOS gene expression; Conc 20 μM): 0.425
nucOX (composite Z-score) (nuOXPHOS transcripts; Conc 20 μM): 0.407

Cc1c(C(=O)O)c(O)cc2c1C(=O)c1c(O)c([C@@H]3O[C@H](CO)[C@@H](O)[C@H](O)[C@H]3O)c(O)c(O)c1C2=O [carminic acid]
MTT [1, 3]: −1.295
Viability (C2C12 myotubes; [3]): −0.905
ΔΨm [2, 3]: −0.378
mitoOX (mtOXPHOS transcripts; [3]): −0.671
ROS (reactive oxygen species; [3]): 0.083
cyt c (cytochrome c; [3]): −0.243
GE-HTS (OXPHOS gene expression; [3]): −0.727
nucOX (nuOXPHOS transcripts; [3]): −0.662

CN(C)CCOC(=O)C(c1ccccc1)C1(O)CCCC1 (centres unmarked) [cyclopentolate]
MTT [1, 6]: −0.756
Viability (C2C12 myotubes; [6]): −0.300
ΔΨm [2, 6]: −0.072
mitoOX (mtOXPHOS transcripts; [6]): −0.037
ROS (reactive oxygen species; [6]): −0.406
cyt c (cytochrome c): 0.859
cyt c (cytochrome c; [6]): −0.283
GE-HTS (OXPHOS gene expression; [6]): 0.556
nucOX (nuOXPHOS transcripts; [6]): 0.830

C[C@H]1C(=O)CC[C@@H]2[C@]1(C)CC[C@H]1[C@@]2(C)CC[C@@]2(C)[C@@H]3CC(C)(C)CC[C@]3(C)CC[C@]12C [friedelin]
MTT [1, 3]: −1.362
Viability (C2C12 myotubes; [3]): 0.082
ΔΨm [2, 3]: −0.867
mitoOX (mtOXPHOS transcripts; [3]): −0.600
ROS (reactive oxygen species; [3]): 0.449
cyt c (cytochrome c; [3]): 0.614
GE-HTS (OXPHOS gene expression; [3]): −1.043
nucOX (nuOXPHOS transcripts; [3]): −1.150

CC(C)C[C@H](NC(=O)CN)C(=O)N[C@@H](Cc1ccccc1)C(=O)O [glycylleucylphenylalanine] (H-Gly-Leu-Phe-OH)
MTT [1, 3]: −0.344
Viability (C2C12 myotubes; [3]): −0.254
ΔΨm [2, 3]: −0.774
mitoOX (mtOXPHOS transcripts; [3]): −0.322
ROS (reactive oxygen species; [3]): 0.973
cyt c (cytochrome c; [3]): −0.182
GE-HTS (OXPHOS gene expression; [3]): −0.095
nucOX (nuOXPHOS transcripts; [3]): 0.033

COc1ccc([C@H]2COc3cc(O)ccc3C2)c(OC)c1O [mucronulatol]
MTT (composite Z-score) ([1]; Conc 20 μM): −0.847
Viability (composite Z-score) (C2C12 myotubes; Conc 20 μM): 1.396
ΔΨm (composite Z-score) ([2]; Conc 20 μM): 0.006
mitoOX (composite Z-score) (mtOXPHOS transcripts; Conc 20 μM): −0.729
ROS (composite Z-score) (reactive oxygen species; Conc 20 μM): −0.187
cyt c (composite Z-score) (cytochrome c; Conc 20 μM): −0.365
GE-HTS (composite Z-score) (OXPHOS gene expression; Conc 20 μM): −0.345
nucOX (composite Z-score) (nuOXPHOS transcripts; Conc 20 μM): −0.104

3alpha-hydroxy-3-deoxyangolensic acid methyl ester
MTT [1, 5]: −1.268
Viability (C2C12 myotubes; [5]): 0.949
ΔΨm [2, 5]: −0.043
mitoOX (mtOXPHOS transcripts; [5]): −0.377
ROS (reactive oxygen species; [5]): 0.799
cyt c (cytochrome c; [5]): −0.141
GE-HTS (OXPHOS gene expression; [5]): −0.456
nucOX (nuOXPHOS transcripts; [5]): −0.474

CC(=O)C=CC1C(C)(O)CCC2C(C)(C)CCCC21C (centres unmarked) [8-hydroxy-15,16-bisnor-11-labden-13-one]
MTT [1, 7]: −0.248
Viability (C2C12 myotubes; [7]): −1.702
ΔΨm [2, 7]: 0.798
mitoOX (mtOXPHOS transcripts; [7]): −1.430
ROS (reactive oxygen species; [7]): 0.504
cyt c (cytochrome c; [7]): 0.550
GE-HTS (OXPHOS gene expression; [7]): −0.554
nucOX (nuOXPHOS transcripts; [7]): −0.078

CC(=O)O[C@H]1C[C@@H](OC(C)=O)C(C)(C)C2C[C@@H](O)[C@]3(C)C(CC[C@@]4(C)[C@H](c5ccoc5)OC(=O)[C@H]5O[C@]543)[C@]21C (some centres unmarked) [7-deacetylkhivorin]
MTT [1, 5]: 0.608
Viability (C2C12 myotubes; [5]): 0.893
ΔΨm [2, 5]: −0.049
mitoOX (mtOXPHOS transcripts; [5]): 0.188
ROS (reactive oxygen species; [5]): −0.618
cyt c (cytochrome c; [5]): 0.079
GE-HTS (OXPHOS gene expression; [5]): 0.477
nucOX (nuOXPHOS transcripts; [5]): 0.543

C=C1C2=CC(=O)O[C@@H](c3ccoc3)[C@]2(C)CC[C@@H]1[C@@]1(C)C=CC(=O)C(C)(C)[C@@H]1CC(=O)OC [deoxyandirobin]
MTT [1, 5]: 0.232
Viability (C2C12 myotubes; [5]): 0.894
ΔΨm [2, 5]: 0.381
mitoOX (mtOXPHOS transcripts; [5]): 1.246
ROS (reactive oxygen species; [5]): −1.077
cyt c (cytochrome c; [5]): 1.196
GE-HTS (OXPHOS gene expression; [5]): 1.352
nucOX (nuOXPHOS transcripts; [5]): 1.240
